Data on six molecules can be found in patent US8173840B2, “Compounds with high therapeutic index” (Signature R&D Holdings, LLC, priority 2003, dated 2012).

Read-outs that look alike come from different tables or passages of the source.

In general, solubility refers to the concentration that dissolves in the medium under given conditions. A higher solubility goes with much dissolved substance.

Data set [1] deals with Swiss Albino Mice. Conditions: mouse, in vivo.
In data set [2] the test system is Swiss Albino Mice. The experiment in a line: 28-day chronic toxicity study of ibuprofen esters. Conditions: 28 days; for No of animals survived: 10 animals per group; for Average Change In body Weight / Percentage Change of body weight: surviving animals.
In data set [3] the test system is male albino mice (Swiss strain). In words: Acetylcholine induced abdominal constriction (writhe) method. Format: in vivo, mouse. Conditions: gavage. The procedure:
Ibuprofen (racemic mixture) and ibuprofen (S)-(+) served as reference controls.
The study was conducted at two dose levels viz. 50 mg and 100 mg/kg body weight along with a vehicle control group. At each dose level 10 animals were used. All the doses were expressed as ibuprofen molar equivalents. The doses used as well as the molar equivalents are presented below.
The efficacy in terms of antagonizing effect on acetylcholine induced single writhe at two dose levels—50.0 and 100.0 mg/kg for the three formulations and reference controls are presented below.

The test system of data set [4] is albino mice (Swiss strain). The experiment in a line: 14 day repeated dose toxicity study, intravenous route, propofol esters. Conditions: for feed intake / behavior, feed consumption, organ weights, histopathology of different organs / reduced body weight gain compared to vehicle control: 14 days; for behavior, feed consumption, organ weights, histopathology of different organs: vs reference group; for animals exhibiting clinical symptoms of toxicity / body weight gain: IV daily 14 days; for body weight gain: compared to vehicle control.

The test system of data set [5] is albino mouse. In words: Anesthetic effect in male albino mice, righting reflex as index. Conditions: for dose response relation (statistical analysis): low, intermediate, high dose.
The nature of data set [6]: Solubility of propofol and its amino acid esters in water. Conditions: water, solubility in water.
Data set [7] deals with Spontaneously Hypertensive Rats (SHRs). In words: Hemodynamics in Spontaneously Hypertensive Rats. Format: in vivo, rat. On the procedure:
ACE inhibitors have been known to be useful in antihypertensive therapy for many years. Some ACE inhibitors are delivered orally as the parent drug (captopril) while others are delivered as pro-drugs in order to obtain clinically useful plasma concentrations. This study provides data on the effect of these various enalapril derivatives on hemodynamics in SHRs when given orally and compared to enalapril.
Briefly, SHRs fitted with right carotid catheters were orally gavaged with 100 mg/kg enalapril or equivalent does of the enalapril derivatives, and the blood pressures were followed continuously up to 3 hours and then a measurement at 24 hours. The animals were conscious throughout the procedure and were placed in a restrainer and hooked up to a pressure transducer and a signal processor. After 3 hours, the animals were placed back into their cage, and blood pressure was finally measured again at 24 hours.

For data set [8], the system named is human volunteers. In words: Analgesic and anti-inflammatory effects of S(+)Ibuprofen-L-Threonine Ester in human volunteers. Format: in vivo. On the procedure: Determination of the analgesic and anti-inflammatory effects of S(+)Ibuprofen-L-Threonine Ester in three human volunteers was conducted as follows:
Two male, age 49 and 50 having severe headache took 1 capsule containing S(+)Ibuprofen-L-Threonine Ester manufacturing and formulation under GMP conditions. The capsule contents were equivalent to 200 mg of racemic Ibuprofen. Relief from headache was reported after 15 min, and complete absence of any pain from headache was reported at the end of 1 hour, which lasted for another 12 hours.
Two males age 49 and 51 took 1 capsule each containing S(+)IbuprofenL-Threonine ester for arthritic knee pain, which was perceptible. […] Such amolearation of pain was further sustained for another 24 hours.

Data set [9] deals with fasted male albino rats (Wistar strain). The experiment in a line: Gastric mucosal irritation potential of ibuprofen esters. Type of data set: in vivo, rat. Conditions: two dose levels, 200 mg and 300 mg/kg.
For data set [10], the system named is Patient. The experiment in a line: Human clinical trial of S(−)Ketorolac-L-Threonine ester (analgesic activity). Format: in vivo. Conditions: for analgesic activity and side effects (words): 13 mg twice daily, oral capsules, Hydrochloride. On the procedure:
S(−)Ketorolac-L-Threonine ester capsules were filled using dextrose as the filler. […] For example, 13 mg of S(−)Ketorolac-L-Threonine ester was roughly equivalent to 13 mg of racemic Ketorolac tromethamine in tablet and/or capsule form.
A patient suffering from severe ankolysing spodolytis, arthritis and other inflammatory joint problems was under treatment with Indomethacin, 25 mg twice daily dose. In order the evaluate the analgesic activity of S(−) Ketorolac-L-Threonine ester, the patient was withdrawn from Indomethacin. After 24 hours, the pain returned and they were administered with 13 mg of S(−) Ketorolac L-Threonine ester, once in the morning and once in the evening. This was repeated for 5 days.
About 3 months later, the same above volunteer repeated the experiment. This time, after they went off the indomethacin, only one dose of 13 mg of S(−) Ketorolac-L-Threonine ester was administered. […] This treatment was continued for another 3 days of two capsules of 13 mg each. On the morning of the 6th day, they were switched back to Indomethacin.

Setting [11] is: 50.0 mg/kg in terms of Ibuprofen.
[12] abbreviates: 100.0 mg/kg in terms of Ibuprofen.
The mark [13] stands for this setting: 1 capsule equivalent to 200 mg racemic Ibuprofen.

As to `CC(C)Cc1ccc(C(C)C(=O)O)cc1` (racemic) [Ibuprofen (racemic mixture), reference compound], in data set [1] (both), the animals that died is listed as 40%. Also, the Mortality in data set [1] (female) is given as 3/5. In data set [1] (male), the Mortality is on record as 1/5. Besides, in data set [2], the “No of animals survived” value is given as 6, the “Average Change In body Weight” value was found to be 2.97 gms and the “Percentage Change of body weight” value was determined as 12.54%. For the same molecule, in data set [3] (setting [11]), the “Number of animals showing absence of single writhe (number of animals per dose = 10), One hour after dosing” value amounted to 4 and the “Number of animals showing absence of single writhe (number of animals per dose = 10), Three hours after dosing” value was determined as 2. Further, in data set [3] (setting [12]), the “Number of animals showing absence of single writhe (number of animals per dose = 10), One hour after dosing” value is listed as 6 and the “Number of animals showing absence of single writhe (number of animals per dose = 10), Three hours after dosing” value is given as 6.
For the molecule `CC(C)c1cccc(C(C)C)c1OC(=O)C1CCCN1.Cl` (stereo in doubt) [Propofol Proline Ester, Pyrrolidine-2(S)-carboxylic acid 2,6-diisopropyl-phenyl ester, hydrochloride], in [4], the feed intake result was “normal and comparable to that of vehicle control group”; the “behavior, feed consumption, organ weights, histopathology of different organs” value was “normal and comparable to that of the animals of the reference group”; the “animals exhibiting clinical symptoms of toxicity” value is “None of the animals”; the “body weight gain” value was “normal and comparable to that of vehicle control group of animals”. In addition, in data set [4] (female animals), the “MCV vs Propofol injection (RC) [p<0.05]” value is listed as “significantly decreased” and the “level of urea vs Propofol injection (RC) [p<0.05]” value is listed as “significantly decreased”. Also, in [4] (male animals), the “granulocytes vs Propofol injection (RC) [p<0.05]” value is “significantly decreased”, the “level of sodium vs Propofol injection (RC) [p<0.05]” value is listed as “significantly increased” and the “lymphocytes counts vs Propofol injection (RC) [p<0.05]” value is on record as “significantly increased”. Moreover, the “anesthetic effect, relative efficacy” value in data set [5] (Intermediate Dose) is on record as “more effective”. Also, in data set [5], the “dose response relation (statistical analysis)” value is recorded as “No significant dose—response effects were evident”. Further, in data set [6], the solubility is > 100 mg/mL.
On to `CCOC(=O)[C@H](CCc1ccccc1)N[C@@H](C)C(=O)N1CCC[C@H]1C(=O)O` [Enalapril], for which the “reduction of blood pressure” value in [7] (100 mg/kg oral gavage, at 3 hours and 24 hours) is on record as “approximately 20%”. For the same molecule, the “arterial blood pressure” value in data set [7] (oral, 100 mg/kg enalapril or equivalent doses) is “reduced arterial blood pressure”.
For `CC(C)c1cccc(C(C)C)c1OC(=O)CN.Cl` [Propofol Glycine Ester, Amino-acetic acid 2,6-diisopropyl-phenyl ester, hydrochloride], in data set [4], the feed intake entry is “normal and comparable to that of vehicle control group”; the “behavior, feed consumption, organ weights, histopathology of different organs” value is “normal and comparable to that of the animals of the reference group”; the “animals exhibiting clinical symptoms of toxicity” value was “None of the animals”; the “body weight gain” value is listed as “reduced in both the sexes”. Besides, in data set [4] (female animals), the “MCV vs Propofol injection (RC) [p<0.05]” value is reported as “significantly decreased” and the “granulocytes counts vs Propofol injection (RC) [p<0.05]” value is “significantly increased”. The “reduced body weight gain compared to vehicle control” value in data set [4] (females) is reported as 26.94%. In data set [4] (males), the “reduced body weight gain compared to vehicle control” value was 25.87%. The “anesthetic effect, relative efficacy” value in data set [5] (High Dose) is “more effective”. Besides, the “anesthetic effect, relative efficacy” value in data set [5] (Low Dose) was “more effective”. Also, the “efficacy in inducing anesthesia based on time required to regain the righting reflex (conclusion)” value in data set [5] (albino mice) is “relatively better efficacy”. Also, the “dose response relation (statistical analysis)” value in [5] is on record as “not statistically evident”. Also, the solubility in [6] is > 100 mg/mL.
With `CC(C)Cc1ccc([C@H](C)C(=O)O[C@H](C)[C@H](N)C(=O)O)cc1.Cl` [S-(+)-Ibuprofen-L-threonine ester, 2(S)-Amino-3(R)-[2(S)-(4-isobutyl-phenyl)-propionyloxy]-butyric acid], in [8] (1 capsule), the “amelioration of knee pain sustained for another” value came out at 24 h. Besides, in data set [8] (setting [13]), the “absence of headache pain lasted for another” value was found to be 12 h and the “complete absence of any pain from headache reported at the end of” value worked out at 1 h. Also, the “relief from headache reported after” value in [8] (1 capsule equivalent to 200 mg racemic Ibuprofen, two males with severe headache) was found to be 15 min. For the same molecule, the “arthritic knee pain” value in [8] (1 capsule, two males, after 12 hours) is on record as “significant reduction is the pain associated with their right knee”. In [2], the “No of animals survived” value came out at 10, the “Average Change In body Weight” value was −0.68 gms and the “Percentage Change of body weight” value is −3.61%. Also, in data set [2] (both sexes), the animals that died entry was “none of the animals”. In addition, the Mortality entry in data set [2] (Female) is “Nil”. The Mortality result in data set [2] (Male) was “Nil”. Besides, in data set [3] (setting [11]), the “Number of animals showing absence of single writhe (number of animals per dose = 10), One hour after dosing” value stood at 1 and the “Number of animals showing absence of single writhe (number of animals per dose = 10), Three hours after dosing” value is given as 0. Besides, in data set [3] (setting [12]), the “Number of animals showing absence of single writhe (number of animals per dose = 10), One hour after dosing” value was 3 and the “Number of animals showing absence of single writhe (number of animals per dose = 10), Three hours after dosing” value turned out to be 0. Also, in data set [9], the “irritation of gastric mucosa” value is “significantly and completely non-toxic to GI mucosa in the rats tested”.
With “S(−)-Ketorolac L-Threonine Ester, Hydrochloride [S(−) Ketorolac L-Threonine ester]”, the “analgesic activity and side effects (words)” value in data set [10] was “lack of pain, no gastric irritation symptoms, or other side effects”; in data set [10] (listed as S(−) Ketorolac-L-Threonine ester), “lack of any pain”. In data set [10] (only one dose of 13 mg daily, after the 2nd day), the “analgesic activity” value is given as “complained of the pain resurfacing”.
